# Measurements from patent US12168781B2, “Production method for T cells or NK cells, medium for culturing T cells or NK cells, method for culturing T cells or NK cells, method for maintaining undifferentiated state of undifferentiated T cells, and growth-accelerating agent for T cells or NK cells” (KIRIN HOLDINGS KABUSHIKI KAISHA, priority 2018, dated 2024).
# Assays:
# NK cells = assay: Proliferation of NK cells purified from PBMCs, trypan blue count; type: cell-based, human; settings: 1 μM, 14 days, NK cells of 3 donors, FIG. 20(C)
# Source text: The effect of berbamine on NK cells was examined. As a method therefor, NK cells were purified from PBMCs (CTL, Inc.) derived from 3 healthy donor subjects using NK Cell Isolation Kit, human (Miltenyi, 130-092-657).
# The NK cells before and after purification were washed with a staining solution (PBS containing 2% FBS) and then stained with CD56-FITC (BioLegend, 362546) and CD3-APC-Cy7 (BioLegend, 300318).
# After washing, the cells were resuspended in the staining solution containing propidium iodide and measured using a BD FACSCanto II Flow Cytometer (BD Bioscience). The ratios of CD3(−) and CD56(+) cells in the PI-negative cell population analyzed by FlowJo 10 were confirmed.
# As shown in FIG. 20(B), the ratios of CD3(−) and CD56(+) cells showing NK cells were 90% or more, which were sufficient. The purified NK cells (37,000 cells/well) were seeded, and cultured using MEM Alpha medium (Gibco, 12571-063) supplemented with 15% FBS (Biological Industries, 04-001-1A), L-Ascorbic Acid 2-Phosphate Sesquimagnesium Salt Hydrate (L-asc-2P, 50 μg/mL, nacalai tesque, 13570-66), ITS-G, IL-7 (10 ng/mL), and IL-15 (5 ng/mL).
# To the culture medium, berbamine (BBM) at 1 μM or MilliQ water that is a solvent for the compound as a control was added, and after culturing for 14 days, the number of viable cells was counted by a trypan blue method.
# T-iPS-T cells = assay: Number of viable T-iPS-T cells under feeder-free culture (CD3/CD28 Dynabeads, Cell Count Reagent SF, absorbance 450 nm/650 nm); type: cell-based, human; settings: for number of viable cells (OD value): T-iPS-T cells after 1st expansion, DMSO control 0.225 ± 0.017
# Procedure: T-iPS-T cells (1,500 cells/well) after 1st expansion were seeded and cultured in RPMI-1640 medium (SIGMA, R8758) supplemented with 15% FBS (CORNING, 35-076-CV, 35076104R), 1% PSG (SIGMA, G1146), PAA (50 μg/mL, Nacalai Tesque, 03420-52), ITS-G, IL-7 (5 ng/mL), IL-12 (50 ng/mL), IL-15 (5 ng/mL), IL-18 (50 ng/mL), IL-21 (20 ng/mL), and z-VAD-fmk (10 μM). The cells were stimulated by adding CD3/CD28 Dynabeads (Gibco, 11131D, the “Dynabeads” is a registered trademark) (4,500 beads/well) thereto, and 1,080 compounds [MedChemExpress, Apoptosis Compound Library (HY-L003), Cell Cycle/DNA Damage Compound Library (HY-L004), JAK/STAT Compound Library (HY-L008), MAPK Compound Library (HY-L010), NF-kappaB Compound Library (HY-L014), PI3K/Akt/mTOR Compound Library (HY-L015), and Wnt/Hedgehog/Notch Compound Library (HY-L020)] were added thereto (one type per well) at a final concentration of 1 μM, and then, the cells were cultured at 37° C. under 5% CO2.
# DMSO (0.1%) that is a solvent for the compound was used as a control. After 6 days, the number of viable cells was measured using Cell Count Reagent SF (Nacalai Tesque, 07553) and a microplate reader (SoftMax Pro 5.X, Molecular Devices, 450 nm/650 nm).
# A calibration curve for cell number was set as follows. When measuring the number of viable cells, 12-point serial dilution was performed for the same cells as those used in the screening, and the cells were seeded (0 to 1,536,000 cells/well) in RPMI-1640 medium supplemented with 15% FBS, 1% PSG, PAA, ITS-G, IL-7 (5 ng/mL) and IL-15 (5 ng/mL). The number of viable cells was measured together with the screening samples, and a calibration curve for WST-8 assay was formed.
# In order to further evaluate the results obtained in Example 4, reproducibility was evaluated. As a method therefor, the same method as in Example 4 was used to carry out culturing and evaluation. As compounds, 20 compounds were selected and used among the compounds used in Example 4 including berbamine, and DMSO (0.1%) that is a solvent for the compound was used as a control. Note that in a statistical analysis, a Student's t-test was used (*: p<0.05).
# The effect of a berbamine derivative on the proliferation of T cells was verified. As a method therefor, T-iPS-T cells after 1st expansion were cultured in the same manner as in Example 4, and berbamine (BBM) or each of 13 types of derivatives [BBMD1 to 13, Hebei Sundia MediTech Company Ltd.] was added thereto (one type per well) at a final concentration of 0.1 nM, 1 nM, 10 nM, 100 nM, or 1 μM, and then, the cells were cultured at 37° C. under 5% CO2. DMSO (0.1%) that is a solvent for the compound was used as a control.
# After culturing for 6 days, the number of viable cells was measured using Cell Count Reagent SF (Nacalai Tesque, 07553) and a microplate reader (SoftMax Pro 5. X, Molecular Devices, 450 nm/650 nm), and the OD value was used as data. Note that in a statistical analysis, a Student's t-test was used (*: p<0.05). 1.
structure (smiles),measurement,setting,value
COc1cc2c3cc1Oc1c(OC)c(OC)cc4c1[C@@H](Cc1ccc(O)c(c1)Oc1ccc(cc1)C[C@@H]3N(C)CC2)N(C)CC4 [berbamine],number of NK cells compared with MilliQ water,NK cells,increase in the number of NK cells
same,number of viable cells (OD value),"T-iPS-T cells; 0.1 nM, 6 days",0.257 ± 0.018
same,number of viable cells (OD value),"T-iPS-T cells; 1 nM, 6 days",0.266 ± 0.024
same,number of viable cells (OD value),"T-iPS-T cells; 10 nM, 6 days",0.275 ± 0.019 *
same,number of viable cells (OD value),"T-iPS-T cells; 100 nM, 6 days",0.282 ± 0.031 *
same,number of cells compared with DMSO (reproducibility of the screening),"T-iPS-T cells; 1 μM, 20 compounds, Student's t-test, FIG. 11",significant increase in the number of cells
same,"number of viable cells, rank among the 1,080 compounds screened","T-iPS-T cells; 1 μM, 6 days, FIG. 6",highest number of viable cells
same,number of viable cells (OD value),"T-iPS-T cells; 1 μM, 6 days",0.505 ± 0.034 ***
